Reference: ChEMBL document CHEMBL1133158, “Beta-carbonyl substituted glutathione conjugates as inhibitors Of O. volvulus GST2” (Bioorg Med Chem Lett, 2000)

How the values were obtained:
[1] = target: Glutathione S-transferase P (Homo sapiens, UniProt P09211); test: Inhibitory activity against human Glutathione S-transferase P
[2] = Selectivity of compound for piGST to that of OvGST2

Glutathione S-transferase P, sequence (P09211 whole entry): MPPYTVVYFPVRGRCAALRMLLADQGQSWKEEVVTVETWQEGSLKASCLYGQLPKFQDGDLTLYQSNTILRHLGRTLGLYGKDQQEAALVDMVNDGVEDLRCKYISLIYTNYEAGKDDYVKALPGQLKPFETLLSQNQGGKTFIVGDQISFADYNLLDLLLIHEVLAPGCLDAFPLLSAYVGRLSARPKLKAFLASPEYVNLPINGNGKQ

Row | IC50 [1] [µM] | Selectivity [2] | SMILES
1 | > 250 | – | CC(=O)CC(SCC(NC(=O)CCC(N)C(=O)O)C(=O)NCC(=O)O)C(C)C (stereo unspecified)
2 | > 250 | > 1.1 | NC(CCC(=O)NC(CSC1CCCC(=O)C1)C(=O)NCC(=O)O)C(=O)O (stereo unspecified)
3 | > 250 | – | CCCOC(=O)CC(SCC(NC(=O)CCC(N)C(=O)O)C(=O)NCC(=O)O)C(=O)OCCC (stereo unspecified)
4 | 217 | – | CCC(=O)CC(C)SCC(NC(=O)CCC(N)C(=O)O)C(=O)NCC(=O)O (stereo unspecified)
5 | 5.2 | – | CCC(CC(C)=O)SCC(NC(=O)CCC(N)C(=O)O)C(=O)NCC(=O)O (stereo unspecified)
6 | 40.3 | 0.8 | CCCCOC(=O)CC(SCC(NC(=O)CCC(N)C(=O)O)C(=O)NCC(=O)O)C(=O)O (stereo unspecified)
7 | > 250 | > 7.8 | CC(C)C(=O)CC(SCC(NC(=O)CCC(N)C(=O)O)C(=O)NCC(=O)O)c1ccccc1 (stereo unspecified)
8 | > 250 | > 13.9 | NC(CCC(=O)NC(CSC(CC(=O)O)C(=O)O)C(=O)NCC(=O)O)C(=O)O (stereo unspecified)
9 | 155 | – | CC(=O)CC(SCC(NC(=O)CCC(N)C(=O)O)C(=O)NCC(=O)O)c1ccccc1 (stereo unspecified)
10 | 208 | – | COC(=O)CC(SCC(NC(=O)CCC(N)C(=O)O)C(=O)NCC(=O)O)C(=O)OC (stereo unspecified)
11 | 8.1 | 1.3 | CCCC(CC(C)=O)SCC(NC(=O)CCC(N)C(=O)O)C(=O)NCC(=O)O (stereo unspecified)
